Two molecules from patent publication EP0414895A1, “OROTATE OF $g(a)-AMINO-$g(b)-PHENYL-BUTYRIC ACID” (NAUCHNO-PROIZVODSTVENNOE OBIEDINENIE "BIOLAR", priority 1989, dated 1990) can be followed below.

Assay type in all cases: in vivo
The test system of experiment [1] is Mäuse. The experiment in a line: Thresholds of emotional reactivity and aggressiveness on electric pain stimulation, mice. From the text:
Es wurde auch die emotionelle Aktivität und Aggressivität der Tiere auf dem Wege der elektrischen Schmerzreizung untersucht.
In einer Kammer von 20 x 20 x 25 cm Ausmass, deren Boden - ein Metallgitter aus Stangen darstellt, wurde ein Paar Tiere untergebracht (männliche Mäuse) und es wurde der Wechselstrom durchgelassen. Die Spannung wurde dosenartig auf 5 V solange erhöht, bis der Strom das Piepsen (die Schwelle der emotionellen Reaktivität) und die Schlägerei der Tiere (die Schwelle der Aggressivität) auslöste. Jede Spannungsgrösse wurde innerhalb von 5 sec zweimal in einem Zeitabstand von 20 bis 50 Sekunden aufrechterhalten. Die Kontrolle des Benehmens der Tiere begann man I0 Minuten nach der Einführung der oben erwähnten Verbindungen. Die Angaben sind in Tabellen 3, 4 angeführt.

Experiment [2] has as its system Ratten. The experiment in a line: Natriumäthaminal intoxication, sleep duration, rats. To be noted: 500 mg/kg single + Natriumäthaminal 100 mg/kg i.p. How it is done:
Ausserdem wurde die Wirkung der beanspruchten Verbindung auf die durch Natriumäthaminal erzeugte Intoxikation untersucht. Die Versuche wurden an männlichen Mäusen und Ratten in Gruppen zu 8 bis I0 Tieren angestellt. Natriumäthaminal wurde intraperitoneal in einner Dosis von I00 mg/kg I5 min nach der enteralen Verabreichung der beanspruchten Verbindung oder der Kontrollarzneimittel eingeführt. Es wurde die einmalige und chronische Einwirkung (während I2 bis I4 Tage einmal täglich) von der neuen Verbindung, γ -Amino- β - -phenylbuttersäurehydrochlorid und Pyrazetam untersucht. Es wurde die Dauer der Seitenlage - des Schlafs der Tiere bestimmt. Die Ergebnisse dieser Untersuchung sind in Tabelle 23 (für Mäuse) und 24 (für Ratten) angeführt.

In experiment [3] the test system is Ratten. In words: Thresholds of emotional reactivity and aggressiveness on electric pain stimulation, rats. The settings on record: 100,0 mg/kg.
The subject of experiment [4] is Mäuse. In words: Hemic hypoxia by intraperitoneal Natriumnitrit, survival. To be noted: Natriumnitrit 200 mg/kg i.p. 15 min after compound. How it is done:
Die gemische Hypoxie wurde durch die intraperitoneale und subkutane Verabreichung von Natriumnitrit in einer Dosis von 200 mg/kg den Gruppen zu I0 […] I5 min nach der Einführung der Prüfverbindungen erzeugt. Die Angaben sind in der Tabelle I2 (bei der intraperitonealen Einführung von Natriumnitrit) und Tabelle I3 (bei der subkutanen Einführung von Natriumnitrit) angeführt.

The test system of experiment [5] is Mäuse. In words: Hypoxia in hermetically closed vessel, survival. To be noted: closed vessel 80 cm³. The text has this: Nach der zweiten Methode wurden die Mäuse in einem hermetisch verschlossenen Gefäss von 80 cm³ Inhalt untergebracht, dabei wurde die Luft nicht abgesaugt, und es wurden keine CO₂-Sorptionsmittel zugegeben. Die Prüfverbindungen wurden I Stunde vor dem Beginn des Versuchs intraperitoneal eingeführt (siehe Tabelle II).

In experiment [6] the test system is Mäuse. The experiment in a line: Hypoxia in barochamber (11000 m), survival. The protocol:
Nach einer der Methoden wurden die Mäuse in der Barokammer untergebracht, die für die Höhe von II000 m über dem Meeresspiegel gehoben wurde. Die Hebung wurde mit einer Geschwindigkeit von 50 m/s verwirklicht. Der atmosphärische Tiefdruck wurde mit Hilfe der elektrischen Vakuumpumpe geschaffen.
Die beanspruchte Verbindung, Natriumoxybutyrat und Pyrazetam wurden 60 min vor dem Versuch enteral eingeführt. Der Schutzeffekt wurde nach der Überlebensdauer eingeschätzt. Die Angaben sind in Tabelle I0 angeführt.

The subject of experiment [7] is Mäuse. The experiment in a line: Phenamin-induced hypermotility in actometer. To be noted: 500 mg/kg + Phenamin 5 mg/kg i.p. 10 min later. How it is done:
Eis wurde die Wirkung der beanspruchten Verbindung auf den durch Phenamin ausgelöston Effekt der Veränderung der Hypermotorik untersucht. Phenamin wurde den Mäusen intraperitoneal in Dosen von 3 und 5 mg/kg I0 Minuten nach der enteralen oder intraperitonealen Einführung der beanspruchten Verbindung und des Pyrazetams eingeführt. Die Tiere wurden in der Kammer des photoelektrischen Aktometers untergebracht. Die motorische Aktivität wurde nach der Zahl der Impulse innerhalb von 60 Minuten bestimmt. Die Angaben sind in der Tabelle 6 angeführt.

In experiment [8] the test system is Mäuse. The experiment in a line: Motor and orientation activity in photoelectric actometer. The settings on record: counted 60 min from 10 min after dosing. From the text: Zur Bestimmung der sedativen Wirksamkeit wurde die motorische und Orientierungsaktivität und die motorische Fähigkeit in Versuchen an Mäusen und Ratten untersucht.
Den Versuchstieren wurden die beanspruchte Verbindung, γ -Amino- β -phenylbuttersäurehydrochlorid und Pyrazetam eingeführt. Als Kontrolle diente die physiologische Lösung (0,9%ige NaCl-Lösung). Die Untersuchungen wurden an I0 bis I2 erwachsenen Tieren (Mäuse, Ratten) durchgeführt.
Bei der Bestimmung der motorischen und Orientierungsaktivität wurde jede Maus in einer Einzelkamner des photoelektrischen Aktometers untergebracht. Die motorische und Orientierungsaktivität wurde nach der Zahl der Impulse bestimmt, die beim Berühren der Aktometerkontakte durch das Tier entstanden. Das Zählen der Im pulse wurde I0 min nach der intraperitonealen Einführung der genannten Verbindungen begonnen und dauerte innerhalb von 60 min. Die Angaben sind in der Tabelle I angeführt.

Where [9] appears, read: 100,0 mg/kg enteral 60 min before.

As for `NC(=O)CN1CCCC1=O` [Pyrazetam, I-Karbamidomethylpyrrolidon-2], the “Spannung in V, Schwelle der Agressivität” value with Mäuse [1] (100 mg/kg) is 28,4±2,4 V; in the experiment with Mäuse [1] (1000 mg/kg), 26,7±2,5 V. In the experiment with Mäuse [1] (1000 mg/kg), the “Spannung in V, Schwelle der emotionellen Reaktivität” value is listed as 20,7±2,4 V. Besides, the Schlafdauer in the experiment on Ratten [2] is recorded as 204,6±21 min. The “Spannung in V, die Schwelle der emotionnellen Reaktivität” value in the experiment on Ratten [3] is 25,7±0,8 V. Also, the Überlebensdauer in the experiment with Mäuse [4] (100,0 mg/kg) is 26,7±2,2 min; with Mäuse [4] (500,0 mg/kg) it was 34,2±3,6 min; in the experiment on Mäuse [4] (1000,0 mg/kg), 38,8±4,2 min; in the experiment with Mäuse [5] (100,0 mg/kg i.p. 1 h before), 9,6±1,2 min; in the experiment on Mäuse [5] (500,0 mg/kg i.p. 1 h before), 11,8±2,1 min; with Mäuse [5] (1000,0 mg/kg i.p. 1 h before) it was 13,6±1,8 min. The Überlebensdauer is 3,4±0,6 min with Mäuse [6] (setting [9]), 5,5±1,8 min in the experiment with Mäuse [6] (500,0 mg/kg enteral 60 min before) and 7,2±1,4 min in the experiment on Mäuse [6] (1000,0 mg/kg enteral 60 min before). Also, in the experiment on Mäuse [7], the “Anzahl der Impulse im Aktometer innerhalb von 60 min” value is 1872±66. Moreover, the “Anzahl der Impulse im Aktometer” value came to 342±18 with Mäuse [8] (100 mg/kg i.p.), 338±24 in the experiment with Mäuse [8] (500 mg/kg i.p.) and 288±28 in the experiment on Mäuse [8] (1000 mg/kg i.p.).
For the molecule `O=C(O)CCCO` [Natriumoxybutyrat], the Überlebensdauer in the experiment on Mäuse [4] (100,0 mg/kg) is reported as 28,4±2,8 min; with Mäuse [4] (200,0 mg/kg), 43,0±2,3 min; in the experiment with Mäuse [6] (setting [9]), 7,1±2,3 min; with Mäuse [6] (200,0 mg/kg enteral 60 min before), 10,1±1,9 min.
